One assay deals with T1, β-secretase (BACE) (Homo sapiens, UniProt P56817).
T1 construct: purchased Panvera
As to the kind of experiment: In Vitro BACE FS1 % Inhibition Assay (Example 15). The assay is classed as biochemical. Conditions: FS1 substrate. As to the method: The following reagents were used in this assay: sodium acetate, PEG8000 (Sigma), DMSO, HEPES, FS1 substrate [R(AedensE)[…]-(DabcylK)R], β-secretase (BACE) (Panvera), and 96-well plate (HE microplate, Molecular Devices).
The following assay buffers were prepared and used in this assay: (1) enzyme assay buffer (0.05 M sodium acetate, pH5, 0.1% PEG8000 (w/v)), (2) substrate assay buffer (0.05 M sodium acetate, pH5), and (3) compound vehicle (30% DMSO in 50 mM HEPES, pH 7.4).
The FS1-substrate stock solution was prepared in DMSO as a 10 mg/mL solution. The FS1-substrate working solution was prepared by diluting the 10 mg/mL stock solution with substrate assay buffer to a final concentration of 300 μg/mL. The β-secretase (BACE) working solution was prepared by diluting a 0.83 mg/mL BACE stock solution with enzyme assay buffer to a final concentration of 4 μg/mL.
Test compounds were dissolved in DMSO to 10 mM. Compounds were further diluted in vehicle to various concentrations in the range of 405 μM to 4.05 μM (13.5× final compound concentration in screening plate).
The screening procedure for this assay was as follows: 15 μL of BACE working solution was pipetted into each well of a 96-well plate. To each well was then pipetted 2 μL of test compound at the selected concentration. Test compound and BACE were then mixed with a pipettor and incubated for 20 min at room temperature. To each well was then added 10 μL of the FS1 substrate working solution. The plates were then incubated for 1 hour at room temperature. The fluorescence for each well was then measured on an LJL analyst (Ex 360 nm/Em 530 nm).
The procedure for the blank (negative control) was as follows. 15 μL of assay buffer was pipetted into each well to be used as a blank control. To each well was then added 2 μL of vehicle and 10 μL of FS1-substrate working solution. The plates were then incubated for 1 hour at room temperature. The fluorescence was measured on an LJL analyst (Ex 360 nm/Em 530 nm).
The procedure for the positive control was as follows: 15 μL of BACE working solution was pipetted into each well to be used as a positive control. To each well was then pipetted 2 μL of vehicle. Vehicle and BACE were then mixed with a pipettor and incubated for 20 min at room temperature. To each well was then added 10 μL of the FS1 substrate working solution. The plates were then incubated for 1 hour at room temperature. The fluorescence (Fl) was then measured on an LJL analyst (Ex 360 nm/Em 530 nm).
For test compounds, % inhibition was determined at each concentration as follows:
% Inhibition values of less than 30% were indistinguishable from control and are listed as ≦30% in the Table below. % Inhibition values greater than 100% were indistinguishable from 100% within the error of the measurement.

For another assay, the target named is human BACE-1 (Homo sapiens, UniProt P56817). As to the kind of experiment: In Vitro BACE Assay run by CEREP (Example 19). The assay is classed as biochemical. Conditions: recombinant enzyme; for inhibition at 1 µM: pH 4.5, 1.0 μM compound; for IC50: pH 4.5; for inhibition at 10 µM: pH 4.5, 10.0 μM compound. As for the experimental part:
This assay was run by CEREP (Catalog Ref. 761-B, Referred to SOP No. 1C131; ERMOLIEFF, J., LOY, J. A., KOELSCH, G. and TANG, J., Proteolytic activation of recombinant pro-memapsin 2 (pro-BACE) studied with new fluorogenic substrates, Biochemistry, (2000) Vol. 39, p. 12450).
More specifically the assay, run at 50 μL in a 96 well plate, evaluated the effect of test compound on the activity of the human BACE-1 quantified by measuring the formation of Mca-S-E-V—N-L-NH2 from Mca-S-E-V—N-L-D-A-E-F—R—K(Dnp)-R—R—NH2, using a recombinant enzyme.
The test compound, reference compound or water (control) was added to a buffer containing 0.09 M sodium acetate (pH 4.5) and 0.25 μg BACE-1. Compound interference with the fluorimetric detection method due to autofluorescence was then checked by measurements at the wavelengths defined to evaluate the enzyme activity. Thereafter, the reaction was initiated by adding 7.5 μM of the substrate Mca-S-E-V—N-L-D-A-E-F—R—K(Dnp)-R—R—NH2 and the mixture was incubated for 60 min at 37° C. For control basal measurement, the substrate was omitted from the reaction mixture. Immediately after the incubation, the fluorescence intensity emitted by the reaction product Mca-S-E-V—N-L-NH2 was measured at λex=320 nm and λem=405 nm using a microplate reader (Ultra, Tecan). The standard inhibitory reference compound was OM99-2, which was tested in each experiment at several concentrations to obtain an inhibition curve from which its IC50 value was calculated.

Molecules are shown by their SMILES.

human BACE-1, sequence (P56817 46-501): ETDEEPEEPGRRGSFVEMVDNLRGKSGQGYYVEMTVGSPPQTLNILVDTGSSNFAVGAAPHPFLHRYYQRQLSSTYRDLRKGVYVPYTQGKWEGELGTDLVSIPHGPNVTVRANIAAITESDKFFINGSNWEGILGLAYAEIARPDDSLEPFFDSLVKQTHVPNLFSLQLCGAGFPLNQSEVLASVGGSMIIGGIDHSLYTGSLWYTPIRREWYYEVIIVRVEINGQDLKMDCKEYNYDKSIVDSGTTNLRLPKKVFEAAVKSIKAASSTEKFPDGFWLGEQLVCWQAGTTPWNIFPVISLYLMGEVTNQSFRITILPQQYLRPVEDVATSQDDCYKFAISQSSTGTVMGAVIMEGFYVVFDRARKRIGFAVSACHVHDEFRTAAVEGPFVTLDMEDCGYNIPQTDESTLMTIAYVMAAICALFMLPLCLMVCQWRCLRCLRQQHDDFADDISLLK
T1 sequence (P56817 46-501): as above

`Cn1ccnc1CN(CCCC(c1cc2cc(Oc3ccccc3)ccc2nc1N)C1CCOCC1)CCC(C)(C)C` (stereo not shown) [Example 11, 3-[4-[(3,3-dimethyl-butyl)-(1-methyl-1H-imidazol-2-ylmethyl)-amino]-1-(tetrahydro-pyran-4-yl)-butyl]-6-phenoxy-quinolin-2-ylamine]: the “% Inhibition @ 0.3 μM” value on β-secretase (BACE) (0.3 μM compound) is on record as −6%. The “% Inhibition @ 1 μM” value at β-secretase (BACE) (1 μM compound) is given as 5%. Besides, on β-secretase (BACE) (3 μM compound), the “% Inhibition @ 3 μM” value was found to be 81%.

The inhibition is the share of the control response that was lost under treatment. Usually IC50 stands for the point on the concentration scale where inhibition reaches its midpoint. As for `CN(C(=O)CCCC(c1cc2cc(Oc3ccccc3)ccc2nc1N)C1CCCCC1)C1CCCCC1` (stereo not shown) [compound 40], the inhibition at 0.3 µM at human BACE-1 (pH 4.5, 0.3 μM compound) worked out at 13%. For the same compound, on human BACE-1, the inhibition at 1 µM came out at 54% and the IC50 was determined as 650 nM.

As to `Nc1nc2ccc(Oc3ccccc3)cc2cc1C(CCC(=O)N(CCO)C1CCCCC1)C1CCOCC1` (stereo not shown) [compound 50], on human BACE-1, the inhibition at 1 µM was found to be 87% and the IC50 came to 740 nM.

For `Nc1nc2ccc(Oc3ccccc3)cc2cc1[C@@H](CCC(=O)NCC1CC1)C1CCOCC1` [compound 78], at human BACE-1, the inhibition at 1 µM is 75% and the IC50 was found to be 340 nM.

For the compound `CC(C)(C)CCNC(=O)CC[C@H](c1cc2cc(Oc3ccccc3)ccc2nc1N)C1CCOCC1` [compound 79], on human BACE-1, the inhibition at 1 µM was 89% and the IC50 was 290 nM.

With `CC(C)(C)CCNC(=O)CCC[C@H](c1cc2cc(Oc3ccccc3)ccc2nc1N)C1CCOCC1` [compound 82], on human BACE-1, the inhibition at 1 µM is 85% and the IC50 was determined as 210 nM.

As to `CN(CC1CCCCC1)C(=O)CC[C@H](c1cc2cc(Oc3ccccc3)ccc2nc1N)C1CCOCC1` [compound 84], at human BACE-1, the inhibition at 1 µM came out at 96% and the IC50 turned out to be 360 nM.

As to `CN(CCC[C@H](c1cc2cc(Oc3ccccc3)ccc2nc1N)C1CCOCC1)CC1CCCCC1` [compound 85], at human BACE-1, the inhibition at 10 µM stood at 98% and the IC50 was found to be 340 nM.

With `Cn1ccnc1CN(CCC(C)(C)C)C(=O)CC[C@H](c1cc2cc(Oc3ccccc3)ccc2nc1N)C1CCOCC1` [compound 86], on human BACE-1, the inhibition at 1 µM stood at 100% and the IC50 is 220 nM.

On to `Cn1ccnc1CN(CCC(C)(C)C)C(=O)CCCC(c1cc2cc(Oc3ccccc3)ccc2nc1N)C1CCOCC1` (stereo not shown) [compound 87], for which, on human BACE-1, the inhibition at 10 µM was 99% and the IC50 is 260 nM.

With `CCOC(=O)C(COCc1ccccc1)NCCCC(c1cc2cc(Oc3ccccc3)ccc2nc1N)C1CCOCC1` (stereo not shown) [compound 89], at human BACE-1, the inhibition at 10 µM came to 85% and the IC50 is 690 nM.

For the compound `Nc1nc2ccc(Oc3ccccc3)cc2cc1C(CCCC(=O)N(CCN1CCOCC1)C1CCCCC1)C1CCOCC1` (stereo not shown) [compound 90], on human BACE-1, the inhibition at 10 µM was determined as 94% and the IC50 is 1700 nM.

For `Nc1nc2ccc(Oc3ccccc3)cc2cc1C(CCCC(=O)N(CCN1CCCC1)C1CCCCC1)C1CCOCC1` (stereo not shown) [compound 91], on human BACE-1, the inhibition at 10 µM was 86% and the IC50 was determined as 1100 nM.

As for `CC(C)(C)CCN(CCCC(c1cc2cc(Oc3ccccc3)ccc2nc1N)C1CCOCC1)CCN1CCCC1` (stereo not shown) [compound 93], at human BACE-1, the inhibition at 10 µM was determined as 95% and the IC50 turned out to be 86 nM.

With `Cn1ccnc1CN(CCCC(c1cc2cc(Oc3ccccc3)ccc2nc1N)C1CCOCC1)C1CCCCC1` (stereo not shown) [compound 94], on human BACE-1, the inhibition at 10 µM stood at 95% and the IC50 stood at 82 nM.

On to `COC(=O)C(COCc1ccccc1)NCCCC(c1cc2cc(Oc3ccccc3)ccc2nc1N)C1CCOCC1` (stereo not shown) [compound 95], for which, at human BACE-1, the inhibition at 10 µM came out at 95% and the IC50 is 120 nM.

`CC(C)C(CO)NCCCC(c1cc2cc(Oc3ccccc3)ccc2nc1N)C1CCOCC1` (stereo not shown) [compound 96]: at human BACE-1, the inhibition at 10 µM was 83% and the IC50 came out at 1700 nM.

On to `COc1cc2nc(N)c(C(CCC(=O)NCCC(C)(C)C)C3CCOCC3)cc2cc1Oc1ccccc1` (stereo not shown) [compound 100], for which, at human BACE-1, the inhibition at 10 µM amounted to 72% and the concentration for half-maximal inhibition (IC50) came out at 370 nM.

For the compound `COc1cc2nc(N)c(C(CCC(=O)N(C)C3CCCCC3)C3CCOCC3)cc2cc1Oc1ccccc1` (stereo not shown) [compound 101], at human BACE-1, the inhibition at 10 µM is 85% and the IC50 stood at 290 nM.

On to `CCOc1cc2nc(N)c(C(CCC(=O)NCCC(C)(C)C)C3CCOCC3)cc2cc1Oc1ccccc1` (stereo not shown) [compound 102], for which, at human BACE-1, the inhibition at 10 µM is 97% and the IC50 came out at 270 nM.

On to `COc1cc2nc(N)c(C(CCC(=O)N(CCN3CCOCC3)C3CCCCC3)C3CCOCC3)cc2cc1Oc1ccccc1` (stereo not shown) [compound 107], for which, at human BACE-1, the inhibition at 10 µM amounted to 89% and the IC50 stood at 360 nM.

As to `COc1cc2nc(N)c(C(CCCN(CCN3CCOCC3)C3CCCCC3)C3CCOCC3)cc2cc1Oc1ccccc1` (stereo not shown) [compound 108], on human BACE-1, the inhibition at 10 µM is 95% and the IC50 was determined as 360 nM.

As to `CC(C)(C)n1cc(CC(c2cc3cc(Oc4ccccc4)ccc3nc2N)C2CCOCC2)nn1` (stereo not shown) [compound 150], on human BACE-1, the inhibition at 1 µM amounted to 12% and the IC50 was found to be 3300 nM.

Regarding `CC(C)(C)Cc1cc(CC(c2cc3cc(Oc4ccccc4)ccc3nc2N)C2CCOCC2)on1` (stereo not shown) [compound 151], at human BACE-1, the inhibition at 1 µM was determined as 90% and the IC50 is 310 nM.

In the case of `CC(C)(C)c1cc(CC(c2cc3cc(Oc4ccccc4)ccc3nc2N)C2CCOCC2)on1` (stereo not shown) [compound 152], on human BACE-1, the inhibition at 1 µM is 53% and the IC50 came to 560 nM.

For the compound `Nc1nc2ccc(Oc3ccccc3)cc2cc1C(Cc1cn(C23CC4CC(CC(C4)C2)C3)nn1)C1CCOCC1` (stereo not shown) [compound 153], at human BACE-1, the inhibition at 1 µM was 46% and the IC50 stood at 670 nM.

`Nc1nc2ccc(Oc3ccccc3)cc2cc1C(CCc1cn(C23CC4CC(CC(C4)C2)C3)nn1)C1CCOCC1` (stereo not shown) [compound 155]: on human BACE-1, the inhibition at 1 µM came to 67% and the IC50 came to 2200 nM.

With `CC(C)(C)c1cc(CCC(c2cc3cc(Oc4ccccc4)ccc3nc2N)C2CCOCC2)on1` (stereo not shown) [compound 156], at human BACE-1, the inhibition at 1 µM worked out at 85% and the IC50 amounted to 310 nM.

Values taken from patent publication US7868022B2, “2-amino-quinoline derivatives useful as inhibitors of β-secretase (BACE)” (Janssen Pharmaceutica NV, priority 2006, dated 2011).
